Assay results reported in patent US20240228468A1, “N-(6-((OCTAHYDROCYCLOPENTA[C]PYRROL-5-YI)AMINO)PYRIDAZIN-3-YL)PHENYL)CARBOXAMIDE AND (6- ((OCTAHYDROCYCLOPENTA[C]PYRROL-5-YL)AMINO)PYRIDAZIN-3-YL)BENZAMIDE DERIVATIVES AS MACHR M4 ANTAGONISTS FOR THE TREATMENT OF NEURODEGENERATIVE DISORDERS” (Vanderbilt University, priority 2021, published 2024).
pIC50: −log10 of the molar value.

Target: T1, Human M4 (Homo sapiens, UniProt P08173)
T1 construct: expressed in transfected cells; host or cells: CHO-K1 (ATCC), co-transfected with chimeric G protein Gqi5
T1 sequence (P08173 1-479): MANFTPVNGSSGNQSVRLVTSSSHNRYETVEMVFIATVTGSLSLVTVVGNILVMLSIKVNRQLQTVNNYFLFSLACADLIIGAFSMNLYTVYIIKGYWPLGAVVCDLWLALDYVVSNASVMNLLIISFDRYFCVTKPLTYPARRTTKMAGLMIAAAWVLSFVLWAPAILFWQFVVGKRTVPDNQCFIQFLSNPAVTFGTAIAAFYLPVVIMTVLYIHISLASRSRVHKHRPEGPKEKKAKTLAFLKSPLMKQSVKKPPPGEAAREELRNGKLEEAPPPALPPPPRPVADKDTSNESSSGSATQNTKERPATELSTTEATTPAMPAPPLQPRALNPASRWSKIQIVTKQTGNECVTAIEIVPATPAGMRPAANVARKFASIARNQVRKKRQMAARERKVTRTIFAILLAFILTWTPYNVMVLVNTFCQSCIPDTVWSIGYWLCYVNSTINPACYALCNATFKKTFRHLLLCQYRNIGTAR
Assay: mAChR M4 cell-based functional assay (calcium flux, antagonism of EC80 acetylcholine response)
Conditions: M4/Gqi5/CHO-K1 cells; for remaining activity at 30 µM: % ACh maximum at 30 μM, read-out: Human M4 Emin (% ACh maximum at 30 μM); for pIC50: concentration-dependent decrease of the response elicited by an EC80 concentration of acetylcholine
How it was run: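 CHO-K1 cells stably expressing human M4 with chimeric Gqi5, Fluo-4 loaded; calcium flux read on FDSS. Compound (10-point, 1:3 series) added first, then EC20 acetylcholine at 143 s and EC80 at 268 s. IC50 from concentration-dependent decrease of EC80 response, four-parameter logistic fit.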

Row | Structure (SMILES) | remaining activity at 30 µM [%] | pIC50
1 | [2H]C([2H])(C1CCOC(C)(C)C1)N1C[C@H]2C[C@H](Nc3ccc(-c4cccc(C(=O)NC)c4)nn3)C[C@H]2C1 (stereo partly drawn) [Compound A75, 3-(6-(((3aR,5s,6aS)-2-((2,2-dimethyltetrahydro-2H-pyran-4-yl)methyl-d2)octahydrocyclopenta[c]pyrrol-5-yl)amino)pyridazin-3-yl)-N-methylbenzamide] | 3 | 8.47
2 | [2H]C([2H])(C1CC(C)(C)OC(C)(C)C1)N1C[C@H]2C[C@H](Nc3ccc(-c4cccc(C(=O)NC)c4)nn3)C[C@H]2C1 [Compound A76, N-methyl-3-(6-(((3aR,5s,6aS)-2-((2,2,6,6-tetramethyltetrahydro-2H-pyran-4-yl)methyl-d2)octahydrocyclopenta[c]pyrrol-5-yl)amino)pyridazin-3-yl)benzamide] | 4 | 7.00
3 | [2H]C([2H])([C@@H]1CCCOC1)N1C[C@H]2C[C@H](Nc3ccc(-c4cccc(C(=O)NC)c4)nn3)C[C@H]2C1 [Compound A79, N-methyl-3-(6-(((3aR,5s,6aS)-2-(((S)-tetrahydro-2H-pyran-3-yl)methyl-d2)octahydrocyclopenta[c]pyrrol-5-yl)amino)pyridazin-3-yl)benzamide] | 5 | 7.04
4 | [2H]C([2H])(C1CCOC(C)(C)C1)N1C[C@H]2C[C@H](Nc3ccc(-c4cc(F)cc(C(=O)NC)c4)nn3)C[C@H]2C1 (stereo partly drawn) [Compound A83, 3-(6-(((3aR,5s,6aS)-2-((2,2-dimethyltetrahydro-2H-pyran-4-yl)methyl-d2)octahydrocyclopenta[c]pyrrol-5-yl)amino)pyridazin-3-yl)-5-fluoro-N-methylbenzamide] | 4 | 8.57
5 | [2H]C([2H])([C@H]1CCCOC1)N1C[C@H]2C[C@H](Nc3ccc(-c4cc(F)cc(C(=O)NC)c4)nn3)C[C@H]2C1 [Compound A84, 3-fluoro-N-methyl-5-(6-(((3aR,5s,6aS)-2-(((R)-tetrahydro-2H-pyran-3-yl)methyl-d2)octahydrocyclopenta[c]pyrrol-5-yl)amino)pyridazin-3-yl)benzamide] | 6 | 6.47
6 | [2H]C([2H])([C@@H]1CCCCO1)N1C[C@H]2C[C@H](Nc3ccc(-c4cc(F)cc(C(=O)NC)c4)nn3)C[C@H]2C1 [Compound A86, 3-fluoro-N-methyl-5-(6-(((3aR,5s,6aS)-2-(((S)-tetrahydro-2H-pyran-2-yl)methyl-d2)octahydrocyclopenta[c]pyrrol-5-yl)amino)pyridazin-3-yl)benzamide] | 4 | 8.57
7 | [2H]C([2H])([C@H]1CCCCO1)N1C[C@H]2C[C@H](Nc3ccc(-c4cc(F)cc(C(=O)NC)c4)nn3)C[C@H]2C1 [Compound A87, 3-fluoro-N-methyl-5-(6-(((3aR,5s,6aS)-2-(((R)-tetrahydro-2H-pyran-2-yl)methyl-d2)octahydrocyclopenta[c]pyrrol-5-yl)amino)pyridazin-3-yl)benzamide] | 4 | 9.05

Continued by rising pIC50, values first:

Row | remaining activity at 30 µM [%] | pIC50 | Structure (SMILES)
8 | 8 | 6.24 | [2H]C([2H])([C@H]1CCCOC1)N1C[C@H]2C[C@H](Nc3ccc(-c4cccc(C(=O)NC)c4)nn3)C[C@H]2C1 [Compound A78, N-methyl-3-(6-(((3aR,5s,6aS)-2-(((R)-tetrahydro-2H-pyran-3-yl)methyl-d2)octahydrocyclopenta[c]pyrrol-5-yl)amino)pyridazin-3-yl)benzamide]
9 | 7 | 6.51 | [2H]C([2H])(C1CCOCC1)N1C[C@H]2C[C@H](Nc3ccc(-c4ccc(F)c(C(=O)NC)c4)nn3)C[C@H]2C1 [Compound A73, 2-fluoro-N-methyl-5-(6-(((3aR,5s,6aS)-2-((tetrahydro-2H-pyran-4-yl)methyl-d2)octahydrocyclopenta[c]pyrrol-5-yl)amino)pyridazin-3-yl)benzamide]
10 | 5 | 7.08 | [2H]C([2H])([C@@H]1CCCOC1)N1C[C@H]2C[C@H](Nc3ccc(-c4cc(F)cc(C(=O)NC)c4)nn3)C[C@H]2C1 [Compound A85, 3-fluoro-N-methyl-5-(6-(((3aR,5s,6aS)-2-(((S)-tetrahydro-2H-pyran-3-yl)methyl-d2)octahydrocyclopenta[c]pyrrol-5-yl)amino)pyridazin-3-yl)benzamide]
11 | 4 | 7.35 | [2H]C([2H])([C@H]1COCCO1)N1C[C@H]2C[C@H](Nc3ccc(-c4cccc(C(=O)NC)c4)nn3)C[C@H]2C1 [Compound A77, 3-(6-(((3aR,5s,6aS)-2-(((S)-1,4-dioxan-2-yl)methyl-d2)octahydrocyclopenta[c]pyrrol-5-yl)amino)pyridazin-3-yl)-N-methylbenzamide]
12 | 5 | 7.54 | [2H]C1([2H])CC(C([2H])([2H])N2C[C@H]3C[C@H](Nc4ccc(-c5cc(F)cc(C(=O)NC)c5)nn4)C[C@H]3C2)CC([2H])([2H])O1 [Compound A82, 3-fluoro-N-methyl-5-(6-(((3aR,5s,6aS)-2-((tetrahydro-2H-pyran-4-yl-2,2,6,6-d4)methyl-d2)octahydrocyclopenta[c]pyrrol-5-yl)amino)pyridazin-3-yl)benzamide]
13 | 5 | 7.55 | [2H]C([2H])(C1CCOCC1)N1C[C@H]2C[C@H](Nc3ccc(-c4cccc(C(=O)NC(C)C)c4)nn3)C[C@H]2C1 [Compound A72, N-isopropyl-3-(6-(((3aR,5s,6aS)-2-((tetrahydro-2H-pyran-4-yl)methyl-d2)octahydrocyclopenta[c]pyrrol-5-yl)amino)pyridazin-3-yl)benzamide]
14 | 4 | 7.85 | [2H]C([2H])(C1CCOCC1)N1C[C@H]2C[C@H](Nc3ccc(-c4cc(F)cc(C(=O)NC)c4)nn3)C[C@H]2C1 [Compound A71, 3-Fluoro-N-methyl-5-(6-(((3aR,5s,6aS)-2-((tetrahydro-2H-pyran-4-yl)methyl-d2)octahydrocyclopenta[c]pyrrol-5-yl)amino)pyridazin-3-yl)benzamide]
15 | 4 | 8.33 | [2H]C([2H])(C1CCOCC1)N1C[C@H]2C[C@H](Nc3ccc(-c4ccc(C(=O)NC)c(F)c4)nn3)C[C@H]2C1 [Compound A70, 2-fluoro-N-methyl-4-(6-(((3aR,5s,6aS)-2-((tetrahydro-2H-pyran-4-yl)methyl-d2)octahydrocyclopenta[c]pyrrol-5-yl)amino)pyridazin-3-yl)benzamide]
16 | 4 | 9.39 | [2H]C([2H])([C@H]1CCCCO1)N1C[C@H]2C[C@H](Nc3ccc(-c4cccc(C(=O)NC)c4)nn3)C[C@H]2C1 [Compound A81, N-methyl-3-(6-(((3aR,5s,6aS)-2-(((R)-tetrahydro-2H-pyran-2-yl)methyl-d2)octahydrocyclopenta[c]pyrrol-5-yl)amino)pyridazin-3-yl)benzamide]
